The record followed here is ChEMBL document CHEMBL4706528, “The design, synthesis and anti-tumor mechanism study of new androgen receptor degrader” (Eur J Med Chem, 2020).

Structures are written as SMILES.

In one assay the test system is MCF7. In words: Antiproliferative activity against androgen-positive human MCF7 cells assessed as cell growth inhibition measured after 72 hrs by SRB assay. As to conditions: MCF7, 72 h. Format: functional, cell-based.
The subject of a further assay is LNCaP C4-2B. The assay is described as follows: Antiproliferative activity against androgen-sensitive positive human LNCaP C4-2B cells assessed as cell growth inhibition measured after 72 hrs by SRB assay. Format: functional, cell-based.
A further assay concerns PC-3. In words: Antiproliferative activity against androgen-negative human PC-3 cells assessed as cell growth inhibition measured after 72 hrs by SRB assay. Format: functional, cell-based. As to conditions: PC-3, 72 h. (In general: Sulforhodamine B stains cellular protein and so reports cell mass.)
In assay [1] the target is T1, Androgen receptor (Homo sapiens) (UniProt P10275).
T1 sequence (whole entry): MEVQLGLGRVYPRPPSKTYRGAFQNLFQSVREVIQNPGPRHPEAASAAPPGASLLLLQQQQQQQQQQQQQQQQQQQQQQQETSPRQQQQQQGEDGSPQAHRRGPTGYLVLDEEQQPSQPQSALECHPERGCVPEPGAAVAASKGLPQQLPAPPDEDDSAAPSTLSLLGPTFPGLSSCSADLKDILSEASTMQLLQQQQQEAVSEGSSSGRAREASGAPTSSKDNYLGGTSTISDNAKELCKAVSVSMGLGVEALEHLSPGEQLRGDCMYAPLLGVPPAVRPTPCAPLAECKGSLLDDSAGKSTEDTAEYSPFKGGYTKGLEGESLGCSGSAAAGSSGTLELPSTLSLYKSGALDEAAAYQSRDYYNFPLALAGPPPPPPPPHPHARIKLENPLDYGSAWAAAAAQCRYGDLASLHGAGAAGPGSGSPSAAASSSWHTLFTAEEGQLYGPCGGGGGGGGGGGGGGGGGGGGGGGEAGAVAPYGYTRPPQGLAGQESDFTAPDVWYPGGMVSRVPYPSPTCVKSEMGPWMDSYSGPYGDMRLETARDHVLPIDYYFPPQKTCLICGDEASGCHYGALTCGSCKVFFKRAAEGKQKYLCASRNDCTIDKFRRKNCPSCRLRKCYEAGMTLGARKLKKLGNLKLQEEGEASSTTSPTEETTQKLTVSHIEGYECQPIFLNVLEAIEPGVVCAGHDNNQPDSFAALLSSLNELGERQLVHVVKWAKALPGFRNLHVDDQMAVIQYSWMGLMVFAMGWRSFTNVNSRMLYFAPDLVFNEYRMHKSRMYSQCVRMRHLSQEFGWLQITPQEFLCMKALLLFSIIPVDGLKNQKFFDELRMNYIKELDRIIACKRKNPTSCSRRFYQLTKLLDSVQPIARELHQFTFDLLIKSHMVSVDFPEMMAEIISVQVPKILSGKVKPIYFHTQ
The assay is described as follows: Binding affinity to androgen receptor LBD (unknown origin) at 10 uM incubated for 4 hrs under dark by fluorescence polarization based binding assay relative to R1881. (In general: Fluorescence polarisation rises when a labelled molecule tumbles more slowly, as on binding a larger partner.)

The test system of a further assay is SGC-7901. In words: Antiproliferative activity against androgen-positive human SGC-7901 cells assessed as cell growth inhibition measured after 72 hrs by SRB assay. The settings on record: SGC-7901, 72 h. Format: functional, cell-based.
Assay [2] can be described thus: Cytotoxicity against androgen-negative human WPMY-1 cells assessed as cell growth inhibition measured after 72 hrs by SRB assay. Format: cell-based. The settings on record: WPMY-1, 72 h.
Another assay has as its system GES1. The assay is described as follows: Cytotoxicity against androgen-negative human GES1 cells assessed as cell growth inhibition measured after 72 hrs by SRB assay. Format: cell-based. The settings on record: GES1, 72 h.
The subject of the next assay is LNCaP. In words: Antiproliferative activity against androgen-positive human LNCaP cells assessed as cell growth inhibition measured after 72 hrs by SRB assay. Format: functional, cell-based.

As usually defined, the IC50 is the midpoint of a concentration-inhibition curve. With `CC1(C)C(=O)N(c2ccc(C#N)c(C(F)(F)F)c2)C(=S)N1CCCCn1cc(COCCOCCOC(=O)CC23CC4CC(CC(C4)C2)C3)nn1`, the IC50 in the assay on MCF7 was 13.3 µM; in the assay with LNCaP C4-2B, 12.3 µM; in the assay with PC-3 it was > 80 µM; with SGC-7901 it was 7.79 µM; in assay [2], > 80 µM; in the assay with GES1, > 80 µM. For the same compound, the IC50 with LNCaP was 1.86 µM. Moreover, the Activity in assay [1] came out at 87.8%.

For the compound `CC1(C)C(=O)N(c2ccc(C#N)c(C(F)(F)F)c2)C(=S)N1CCCn1cc(COCCOCCOC(=O)CC23CC4CC(CC(C4)C2)C3)nn1`, the IC50 was 9.12 µM in the assay with MCF7; 6.03 µM with LNCaP C4-2B; > 80 µM in the assay on PC-3; 4.11 µM with SGC-7901; > 80 µM in assay [2]; > 80 µM with GES1. For the same compound, in the assay with LNCaP, the IC50 stood at 4.06 µM. In addition, in assay [1], the Activity was 74.6%.

Consider `CC1(C)C(=O)N(c2ccc(C#N)c(C(F)(F)F)c2)C(=S)N1Cc1ccc(-n2cc(COCCCOC(=O)CC34CC5CC(CC(C5)C3)C4)nn2)cc1`, for which the IC50 (in the assay on LNCaP C4-2B; in the assay on PC-3; in assay [2]; with LNCaP) was > 80 µM in each case. In assay [1], this compound had an Activity of 26%.

In the case of `CC1(C)C(=O)N(c2ccc(C#N)c(C(F)(F)F)c2)C(=S)N1Cc1ccc(-n2cc(COCCOCCOCCOCCOCCOC(=O)CC34CC5CC(CC(C5)C3)C4)nn2)cc1`, the IC50 is 12.2 µM in the assay on LNCaP C4-2B, > 80 µM with PC-3, > 80 µM in assay [2] and > 80 µM in the assay with LNCaP. This compound also registered an Activity in assay [1] of 39.1%.

Regarding `CC1(C)C(=O)N(c2ccc(C#N)c(C(F)(F)F)c2)C(=O)N1Cc1ccc(OCCOCCOC(=O)CC23CC4CC(CC(C4)C2)C3)cc1`, the IC50 (in the assay on LNCaP C4-2B; in the assay with PC-3; in assay [2]; with LNCaP) was > 80 µM in each case. In addition, the Activity in assay [1] was determined as 26.3%.

`CC1(C)C(=O)N(c2ccc(C#N)c(C(F)(F)F)c2)C(=O)N1Cc1ccc(-n2cc(COCCOCCOCCOCCOC(=O)CC34CC5CC(CC(C5)C3)C4)nn2)cc1`: the IC50 (in the assay with LNCaP C4-2B; with PC-3; in assay [2]; in the assay with LNCaP) was > 80 µM throughout. In assay [1], this compound showed an Activity of 51.8%.

`CC1(C)C(=O)N(c2ccc(C#N)c(C(F)(F)F)c2)C(=S)N1Cc1cn(CCOCCOCCOC(=O)CC23CC4CC(CC(C4)C2)C3)nn1`: the IC50 is > 80 µM with LNCaP C4-2B, > 80 µM in the assay with PC-3, > 80 µM in assay [2] and 9.13 µM in the assay with LNCaP. For the same compound, the Activity in assay [1] was found to be 35.1%.

Regarding `CC1(C)C(=O)N(c2ccc(C#N)c(C(F)(F)F)c2)C(=S)N1CCCn1cc(COCCOCCOCCOC(=O)CC23CC4CC(CC(C4)C2)C3)nn1`, the IC50 in the assay on MCF7 is 7.73 µM; in the assay with LNCaP C4-2B it was 5.8 µM; with PC-3 it was > 80 µM; with SGC-7901, 4.98 µM; in assay [2] it was > 80 µM; in the assay on GES1, > 80 µM. Moreover, in the assay with LNCaP, the IC50 was determined as 3.97 µM. In assay [1], the Activity was 79.5%.
